Patent US20030045482A1, “Using D-ribose with or without anti-microbial agents to enhance healing and subsequent recovery by both synthesizing and sparing NAD derivatives” (priority 2000, published 2003)

Tests used:
ATP synthesis = settings: with de novo D-ribose; 72 to 96 hours ordinarily required from glucose; cited from earlier work
appetite = appetite after D-ribose aqueous solution given during a meal; type: in vivo, people
Source text: This brings up the paradoxical role that ribose plays with respect to appetite. Ribose is offered to consumers primarily because it is rate-limiting in the production of phosphoribosylpyrophosphate (PRPP), a precursor for salvage and for de novo adenine nucloeotide synthetic pathways, which maintain, AMP and ADP (adenosine diphosphate) for re-synthesis of ATP. The high-energy bonds of ATP are the direct source for muscle contraction including myocardial contractions but also energize every cell in the body, especially the immune system under attack. The presence of de novo D-ribose not only enables ATP to be synthesized much faster, but its presence also serves to stimulate the salvage of these nucleotides. With this in mind, a curious thing has been observed. […] The only explanation for this is that the salvage of these nucleotides especially ATP is stimulated by forcibly spraying the ribose onto the tongue. This causes the stomach to send out less of the hormone ghrelin and a full feeling ensues with less food. If a person is ill, care must be taken not to spray ribose forcibly on the tongue by pump action or compressed gas, but rather have it be swallowed immediately or given parenterally.

clean wounds = assay: rate of healing of clean wounds; type: in vivo; settings: ribose by itself
Source text: (§1) Only with respect to the skin has ribose been used for healing purposes, and these are for wound healing in which ribose in combination with other nutrients improved the rate of healing. […] It then became reasonable to assume that this combination should be extended to internal wounds.

infected wounds = assay: rate of healing of infected wounds, ribose combined with antibiotics; type: in vivo
Source text: as §1

O=C[C@H](O)[C@H](O)[C@H](O)CO [D-ribose]
time for synthesis of ATP (ATP synthesis): ≥ 8 h
effect on appetite (appetite; aqueous solution sprayed forcibly by pump action on the tongue during a meal): causes the appetite to abate in many people
effect on appetite (appetite; ribose swallowed): far less such effect
rate of healing of clean wounds (clean wounds): will improve the rate of healing of clean wounds
rate of healing of infected wounds (infected wounds): will improve the rate of healing infected wounds
